Where a name gives a salt, the structure may show the parent alone. Read-outs that look alike come from different tables or passages of the source.
Key:
CYP2D6 = biological target: T1, CYP2D6 (Homo sapiens, UniProt P10635); assay: CYP2D6 inhibition assay (bufuralol, pooled human liver microsomes); type: in vitro ADME; conditions: pH 7.4, probe bufuralol (5 μM), test compound 3 μM, human liver microsomes 0.25 mg/mL
T1 construct: tissue XenoTech LLC Lot 0610351; host or cells: pooled human liver microsomes
Experimental: (§1) Midazolam was obtained from BD Gentest (Waltham, Mass.); 1′ hydroxy midazolam and 1-hydroxy bufuralol maleate were obtained from Ultrafine Chemicals (Manchester, UK); bufuralol HCl, ketoconazole, quinidine, potassium phosphate, and NADPH were obtained from Sigma (St. Louis, Mo.). Test compounds were prepared at 10 mM concentration in DMSO (Mallinckrodt Inc., St. Louis, Mo.). NADPH was prepared at 10 mM concentration in a pH 7.4 buffer (8.3 mg/mL 66.7 mM potassium phosphate). Midazolam was prepared at 1 mM concentration in deionized water (Amgen, Thousand Oaks, Calif.), and bufuralol was prepared at 2 mM concentration in deionized water. A stock solution of ketoconazole was prepared at 37 mM concentration in DMSO, and quinidine was prepared at 500 uM concentration in DMSO. Formic acid in acetonitrile (0.05%, ACN) was used as a quench solution (Sigma-Aldrich, St. Louis, Mo.). All solvents used for LC/MS were of chromatographic grade. Pooled human liver microsomes (Lot 0610351) were purchased from XenoTech LLC, (Lenexa, Kans.).
Pooled human liver microsomes (0.25 mg/mL) were incubated at 37° C. in a phosphate buffer (66.7 mM potassium phosphate at pH 7.4) with the selective CYP2D6 substrate bufuralol at a concentration of 5 μM in the presence and absence of test compound (3 μM). The reaction was started with the addition of NADPH (1 mM final concentration). The reaction was stopped after 10 minutes by addition of formic acid in acetonitrile. 1-Hydroxybufuralol metabolite formation was measured by an HPLC MS detection method (mobile phases for HPLC were: 0.1% AcOH in 5% MeOH, and 0.1% AcOH in 95% MeOH; the HPLC column was an Onyx Monolithic C18 CHO-7645 HPLC column from Phenomenex; Shimadzu LC-10ADVP equipped Biomek FX Liquid handling system and CTC Analytics PAL well auto-sampler; Mass spectrometer: Applied Biosystems API 3000 using Analyst 1.4.1 software). Inhibition was determined by the ratio of the amount of 1-hydroxy bufuralol metabolite formed metabolite in the presence of test compound to the amount of metabolite in the absence of test compound.

[1] = In vivo pharmacokinetics, IV and oral gavage; design: species or system male Sprague-Dawley rats; conditions: rat; for FPO: Table 5; for Fpo (%): Table 6; for clearance / AUC(0-t) / Cmax / Vd: male, Sprague-Dawley, plasma; for Vd: read-out: Vss
Experimental: In vivo pharmacokinetic parameters were determined by measuring systemic plasma exposure in male Sprague-Dawley rats (Charles River Laboratories or Taconic, Oxnard, Calif.) by intravenous administration (N=3 fed rats: 2 mg/kg tail vein injection in DMSO) and oral gavage (N=3 fasted rats: 5 mg/kg in 1% Tween 80-2% HPMC-97% deionized water-pH 2.0 vehicle) (Comparative Example 18′ was only dosed IV and at 0.5 mg/kg). DMSO was obtained from Mallinckrodt Inc.; Tween 80 was obtained from Croda; HPMC is Methocel E50 Premium LV, obtained from Dow Excipients. Following oral administration, blood was drawn (250 μL) at 0.25, 0.5, 1, 2, 4, 6, 8, 12, and 16 hours. Following iv administration, blood was drawn (250 μL) at 0.083, 0.25, 0.5, 1, 2, 4, 6, 8, and 16 hours. Blood samples were drawn using a Culex® In Vivo Sampling System (BASi) and collected in BD Microtainer® tubes containing Lithium Heparin (BD). Plasma was obtained by centrifugation of blood at 14000 g and 2-8° C. for five minutes using an Eppendorf 5417R Centrifuge System. Plasma samples were mixed with 2× volume of acetonitrile (Sigma-Aldrich, St. Louis, Mo.). The mixture was stirred briefly using a vortex mixer and then centrifuged at 2867 g for 5 minutes in a Beckman Coulter Allegra 25R equipped with a Type S5700 rotor. The supernatant was removed and diluted 2× with mobile phase A (5/94.9/0.1 v/v/v MeOH/water/AcOH). Plasma concentrations were determined using liquid chromatography/tandem mass spectrometry, with electrospray ionization (ESI) and multiple reaction monitoring in the positive ion mode (Sciex API 3000 mass spectrometer connected to a Shimadzu LC-20AD pump and a LEAP PAL autosampler. Typical conditions used for HPLC were: mobile phase A=5/94.9/0.1 v/v/v MeOH/water/AcOH and mobile phase B=95/4.9/0.1 v/v/v MeOH/water/AcOH; HPLC column was a Varian MonoChrom C18.3μ for 2×30 mm and 51.1 for 2×50 mm) Instrument response was calibrated by a standard curve over 0.1-2000 ng/mL concentration range, and the lower limit of quantitation was 0.1-2.5 ng/mL. Peak areas were integrated on a Windows 2000 computer using the Sciex program Analyst® (Version 1.4.1). Following peak area integration, the data were exported to the software package (Watson® Non-GLP PROD (Version 7.0.0.01, Thermo Electron Corp., Waltham, Mass.)), where concentrations were determined by a weighted linear regression of peak area versus the nominal concentrations of the calibration standards. Calculations were performed on unrounded numbers. The Watson® Non-GLP PROD software was used to determine precision and accuracy for the calibration standards. Noncompartmental analysis of plasma concentration data was used to generate PK parameters such as clearance (CL, L/h/kg), volume of distribution (Vss, L/kg), area under the curve (AUC, ng·h/mL) and secondary parameters such as half-life (t1/2, h) and oral bioavailability (% F, %). This was done using WinNonlin Enterprise software (Version 5.1.1, from Pharsight Corp., Mountain View, Calif.). References for pharmacokinetic analysis include: Gabrielsson and Weiner (1997) Pharmacokinetic and Pharmacodynamic Data Analysis Concepts and Applications, 2nd ed., Swedish Pharmaceutical Press, Stockholm; Gibaldi and Perrier (1982) Pharmacokinetics, 2nd ed., Marcel Dekker, New York. Rowland and Tozer (1995) Clinical Pharmacokinetics: Concepts and Applications, 3rd ed., Lippincott Williams & Wilkins, Philadelphia.

CYP3A4 = biological target: T2, CYP3A4 (Homo sapiens, UniProt P08684); assay: CYP3A4 inhibition assay (midazolam, pooled human liver microsomes); type: in vitro ADME; conditions: pH 7.4, probe midazolam (2.5 μM), test compound 3 μM, human liver microsomes 0.1 mg/mL
T2 construct: tissue XenoTech LLC Lot 0610351; host or cells: pooled human liver microsomes
Experimental: as §1
Pooled human liver microsomes (0.1 mg/mL) were incubated at 37° C. in a phosphate buffer (66.7 mM potassium phosphate at pH 7.4) with the selective CYP3A substrate midazolam at a concentration of 2.5 μM in the presence and absence of test compound (3 μM). The reaction was started with the addition of NADPH (1 mM final concentration). The reaction was stopped after 10 minutes by addition of formic acid in acetonitrile. 1′-Hydroxymidazolam metabolite formation was measured by an HPLC MS detection method (mobile phases were 0.1% AcOH in 5% MeOH, and 0.1% AcOH in 95% MeOH; the HPLC column was an Onyx Monolithic C18 CHO-7645 HPLC column obtained from Phenomenex; Shimadzu LC-10ADVP equipped Biomek FX Liquid handling system and CTC Analytics PAL well auto-sampler; Mass spectrometer: Applied Biosystems API 3000 using Analyst 1.4.1 software). Inhibition was determined by the ratio of the amount of 1′-hydroxy midazolam metabolite formed in the presence of test compound to the amount of metabolite found in the absence of test compound Inhibition was measured relative to the rate of formation of 1′-hydroxy midazolam incubated at 2.5 μM without test compound.

PKBα = biological target: T3, PKBα (Homo sapiens, UniProt P31749); assay: PKB kinase assay (P33-labeled ATP, peptide substrate, filter plate); type: biochemical; conditions: with respect to PKBα
T3 construct: fused on or other part: His6 tag is likely on the Upstate products
From the text: The kinase assay for evaluating PKB activity comprises active PKB enzymes, a PKB specific substrate, and P^33-labeled ATP. Two form of PKBα enzymes were used, the full length PKBα and a kinase domain of PKBα with pleckstrin domain (amino acids 1-117) deleted. Both PKB enzymes were obtained from Upstate cell signaling solutions (Cat.# 14-276 and 14-341). The PKB substrate used is a synthetic peptide (ARKRERTYSFGHHA (SEQ ID NO: 1)) as described in Obata et al., J. Biol. Chem. 275 (46), 36108-36115 (2000). The phosphorylated substrate was captured by a phosphocellulose membrane filter plate (MILLIPORE) and measured by a Wallac Microbeta liquid scintillation counter (Perkin Elmer). Table 1 provides the IC50 values obtained for each of the examples with respect to PKBα.

[2] = IV 2 mg/kg, read-out: IV AUClast
[3] = PO 5 mg/kg, read-out: Oral AUClast
[4] = PO 5 mg/kg, read-out: Oral Cmax

T3 sequence (P31749 118-472 limits assumed): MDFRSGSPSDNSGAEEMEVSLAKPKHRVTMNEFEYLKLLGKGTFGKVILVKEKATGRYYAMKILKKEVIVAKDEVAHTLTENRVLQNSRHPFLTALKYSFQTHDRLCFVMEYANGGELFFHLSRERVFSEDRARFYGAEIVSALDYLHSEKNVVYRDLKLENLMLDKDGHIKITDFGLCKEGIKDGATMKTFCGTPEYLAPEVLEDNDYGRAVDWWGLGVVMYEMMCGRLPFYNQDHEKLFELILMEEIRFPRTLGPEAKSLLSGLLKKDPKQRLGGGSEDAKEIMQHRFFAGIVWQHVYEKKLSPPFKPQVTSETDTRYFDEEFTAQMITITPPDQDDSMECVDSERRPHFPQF
T2 sequence (P08684 whole entry): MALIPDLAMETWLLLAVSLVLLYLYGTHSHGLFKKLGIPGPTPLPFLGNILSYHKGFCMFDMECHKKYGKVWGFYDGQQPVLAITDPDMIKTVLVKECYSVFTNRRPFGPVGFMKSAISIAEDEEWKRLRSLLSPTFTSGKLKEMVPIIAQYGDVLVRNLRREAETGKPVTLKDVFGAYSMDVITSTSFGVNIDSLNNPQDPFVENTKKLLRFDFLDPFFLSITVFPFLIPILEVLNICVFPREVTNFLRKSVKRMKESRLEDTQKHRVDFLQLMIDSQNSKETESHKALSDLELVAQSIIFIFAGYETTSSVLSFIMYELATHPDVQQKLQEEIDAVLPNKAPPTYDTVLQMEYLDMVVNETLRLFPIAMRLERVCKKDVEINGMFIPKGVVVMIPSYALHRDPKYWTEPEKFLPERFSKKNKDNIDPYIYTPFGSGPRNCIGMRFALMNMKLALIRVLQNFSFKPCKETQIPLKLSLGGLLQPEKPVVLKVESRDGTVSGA
T1 sequence (P10635 whole entry): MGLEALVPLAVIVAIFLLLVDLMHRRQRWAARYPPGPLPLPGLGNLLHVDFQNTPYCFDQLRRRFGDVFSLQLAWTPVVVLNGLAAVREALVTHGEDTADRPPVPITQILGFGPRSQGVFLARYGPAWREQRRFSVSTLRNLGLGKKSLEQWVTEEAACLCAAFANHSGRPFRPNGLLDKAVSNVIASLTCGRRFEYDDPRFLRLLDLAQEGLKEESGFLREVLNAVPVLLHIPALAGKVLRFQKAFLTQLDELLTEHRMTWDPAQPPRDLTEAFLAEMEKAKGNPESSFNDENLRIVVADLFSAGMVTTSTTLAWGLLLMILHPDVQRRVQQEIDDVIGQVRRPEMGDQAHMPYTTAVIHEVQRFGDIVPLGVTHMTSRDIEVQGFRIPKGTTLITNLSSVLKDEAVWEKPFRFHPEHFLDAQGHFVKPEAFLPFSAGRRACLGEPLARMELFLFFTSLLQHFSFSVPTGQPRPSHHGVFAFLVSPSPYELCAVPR

Row | Structure (SMILES) | inhibition at 10 min, 3 μM (CYP2D6) | FPO ([1]; PO 5 mg/kg, IV 2 mg/kg) | Fpo (%) ([1]; PO 5 mg/kg, IV 2 mg/kg) | clearance ([1]; IV 2 mg/kg) | AUC(0-t) [1, 2] | Cmax ([1]; IV 2 mg/kg, read-out: IV Cmax) | Vd ([1]; IV 2 mg/kg) | AUC(0-t) [1, 3] | Cmax [1, 4] | inhibition at 10 min, 3 μM (CYP3A4) | IC50 (PKBα)
1 | N[C@H](CCc1ncc(-c2ccc3cnccc3c2)s1)[C@@H](O)c1ccc(C(F)(F)F)cc1 [36′, reference compound] | 86% | 20% | 19% | 150 mL/min/kg | 221 ng·h/mL | 347 ng/mL | 13.2 L/kg | 113 ng·h/mL | 27 ng/mL | 72% | 
2 | N[C@H](CNc1ncc(-c2ccc3cnccc3c2)s1)Cc1ccc(Cl)c(F)c1 [44′, reference compound] | 75% | 51% | 45% | 41.5 mL/min/kg | 787 ng·h/mL | 816 ng/mL | 0.766 L/kg | 1000 ng·h/mL | 138 ng/mL | 94% | 
3 | C[C@@H](c1ccc(C(F)(F)F)cc1)[C@H](N)CNc1ncc(-c2ccc3cnccc3c2)s1 [10′, reference compound] | 86% | 12% | 25% | 19.1 mL/min/kg | 1680 ng·h/mL | 730 ng/mL | 9.46 L/kg | 487 ng·h/mL | 73 ng/mL | 94% | 
4 | COCc1nc(NC[C@@H](N)Cc2ccc(C(F)(F)F)cc2)sc1-c1ccc2cnccc2c1 [24′, reference compound] | 94% | 14% | 19% | 90.1 mL/min/kg | 369 ng·h/mL | 465 ng/mL | 10.2 L/kg | 129 ng·h/mL | 51 ng/mL | 100% | 
5 | N[C@H](CNc1ncc(-c2ccc3cnccc3c2)s1)Cc1ccc(C(F)(F)F)nc1 [2′, reference compound] | 94% | 5% | 5% | 37.4 mL/min/kg | 870 ng·h/mL | 1260 ng/mL | 2.32 L/kg | 117 ng·h/mL | 29 ng/mL | 100% | 
6 | N[C@H](CNc1ncc(-c2ccc3cnccc3c2)s1)[C@@H](CO)c1ccc(C(F)(F)F)cc1 [33′, reference compound] | 88% | 12% | 10% | 47.5 mL/min/kg | 691 ng·h/mL | 797 ng/mL | 4.18 L/kg | 199 ng·h/mL | 23 ng/mL | 91% | 
7 | CNC(=O)c1nc(NC[C@@H](N)Cc2ccc(C(F)(F)F)cc2)sc1-c1ccc2cnc(F)cc2c1 [Example 22, 2-((S)-2-Amino-3-(4-(trifluoromethyl)phenyl)propylamino)-5-(3-fluoroisoquinolin-6-yl)-N-methylthiazole-4-carboxamide trifluoroacetate] |  |  |  |  |  |  |  |  |  |  | 50 to 1000 nM
8 | CC(C)(C)OC(=O)N[C@@H](Cc1ccc(C(F)F)cc1)CN(C(=O)OC(C)(C)C)c1ncc(-c2ccc3cnc(F)cc3c2)s1 [Example 41, tert-Butyl ((2S)-2-((tert-butoxycarbonyl)amino)-3-(4-(difluoromethyl)phenyl)propyl)(5-(3-fluoro-6-isoquinolinyl)-1,3-thiazol-2-yl)carbamate] |  |  |  |  |  |  |  |  |  |  | 1000 to 10000 nM
9 | N[C@H](CNc1nc(C(=O)NC2CC2)c(-c2ccc3cnc(F)cc3c2)s1)Cc1ccc(C(F)(F)F)cc1 [Example 23, 2-((S)-2-Amino-3-(4-(trifluoromethyl)phenyl)propylamino)-N-cyclopropyl-5-(3-fluoroisoquinolin-6-yl)thiazole-4-carboxamide] |  |  |  |  |  |  |  |  |  |  | 1000 to 10000 nM
10 | N[C@H](CNc1ncc(-c2ccc3cnc(F)cc3c2)s1)Cc1ccc(C(F)F)cc1 [Example 42, (2S)-3-(4-(difluoromethyl)phenyl)-N-1-(5-(3-fluoro-6-isoquinolinyl)-1,3-thiazol-2-yl)-1-2-propanediamine trifluoroacetate] |  |  |  |  |  |  |  |  |  |  | < 50 nM
